From patent US10369123B2, “Perk activator for the treatment of neurodegenerative diseases” (DEUTSCHES ZENTRUM FÜR NEURODEGENERATIVE ERKRANKUNGEN E.V. …, priority 2014, dated 2019)
“Also recorded” adds a separate entry of the source. Like-named read-outs stand apart in the source and are kept apart here.

Columns and labels:
LUHMES neurons = assay: Morphological inspection and counts of viable cells; format: cell-based, human; conditions: co-treatment with PERK activator
Protocol: Nunc™ Nunclon™ Delta 6-well (for protein and mRNA) or 48-well (for cell assays) plates (Thermo Fisher Scientific, Waltham, Mass., USA) were coated with 100 μg/ml poly-L-lysine (Sigma-Aldrich, St. Louis, Mo., USA) and 5 μg/ml fibronectin (Sigma-Aldrich). LUHMES (Lund Human Mesencephalic) cells, derived from human embryonic ventral mesencephalic cells by conditional immortalization (Tet-off v-myc over-expression) were seeded out in a concentration of 130,000 cells/cm^2 to achieve a confluence of 50%. They were then differentiated for 8 days in a medium of DMEM/F12 (Sigma-Aldrich), 1 μg/ml tetracycline, […] and 490 μg/ml dbcAMP into post-mitotic neurons with a dopaminergic phenotype (Lotharius et al. 2005).
For all experiments with annonacin, the medium was replaced during the intoxication period with new medium containing glucose levels reduced to 250 μM, i.e. the physiological concentration in the human brain.
The protection by the PERK activator against annonacin and 4R-tau protein overexpression was also evident on morphological inspection of the cells. […] Lentiviral 4R-tau overexpression had similar effects. […] Cell counts of viable cells with intact nuclear and somatic morphology were counted in randomly selected 1300×1000 sized areas in 4 biological replicates each, confirming the protective effects of Pa.

[1] = test system: P301S tau transgenic mice; assay: Rotarod test; format: in vivo, mouse; conditions: 2 mg/kg i.p. once daily for 6 weeks, 23 weeks of age, vs saline
Protocol: All animal work was conducted either on CR57BL/6 mice, obtained from Charles River Laboratories, Wilmington, Mass., USA, or on homozygous transgenic mice overexpressing human tau with the P301S mutation on a C57BL/6 background, originally developed by Michel Goedert (Xu et al. 2014), obtained by own breeding. Animals were kept at 23±1° C. under standard 12 h light-dark cycle with free access to food and water. They were handled according to the EU Council Directive 2010/63/EU, the Guide for the Care and Use of Laboratory Animals (National Research Council 2011) and the guidelines of the local institutional committee. The experiments were authorized by the local authority “Regierung von Oberbayern” under application number 55.2-1-54-2532-165-13.
5 mg of the PA compound CCT020312 (EMD Millipore, Billerica, Mass., USA) was first dissolved in 100 μl sterile DMSO (AppliChem, Darmstadt, Germany) and then diluted in sterile saline (B. Braun Medical, Melsungen, Germany) to achieve a stock solution of […].
For the efficacy trial in the late disease stage (Xu et al. 2014), P301S mice and wild type littermates received once daily i.p. injections of 2 mg/kg CCT020312 or saline from 17 to 22 weeks of age (n=12 for CCT020312 treated P301S mice, n=9 for other groups); they were analyzed with the Rotarod test in the 23rd week of age. […]

[2] = test system: wild type and P301S tau mice; format: in vivo, mouse
Protocol: All animal work was conducted either on CR57BL/6 mice, obtained from Charles River Laboratories, Wilmington, Mass., USA, or on homozygous transgenic mice overexpressing human tau with the P301S mutation on a C57BL/6 background, originally developed by Michel Goedert (Xu et al. 2014), obtained by own breeding. Animals were kept at 23±1° C. under standard 12 h light-dark cycle with free access to food and water. They were handled according to the EU Council Directive 2010/63/EU, the Guide for the Care and Use of Laboratory Animals (National Research Council 2011) and the guidelines of the local institutional committee. The experiments were authorized by the local authority “Regierung von Oberbayern” under application number 55.2-1-54-2532-165-13. […]
For the efficacy trial in the early disease stage (Xu et al. 2014), P301S mice (n=8 per group) and wild type littermates (n=9 per group) received once daily i.p. injections of 2 mg/kg CCT020312 or equivalent volumes of saline from 9 to 14 weeks of age; they were analyzed with the Morris Water Maze in the 15th week of age.
(§1) For the efficacy trial in the late disease stage (Xu et al. 2014), P301S mice and wild type littermates received once daily i.p. injections of 2 mg/kg CCT020312 or saline from 17 to 22 weeks of age (n=12 for CCT020312 treated P301S mice, n=9 for other groups); they were analyzed with the Rotarod test in the 23rd week of age.

pathological tau species = assay: Immunoblot of tau species in P301S mouse brains; format: in vivo; conditions: P301S mice, 2 mg/kg i.p. once daily for 6 weeks from 17 weeks of age, vs saline
Protocol: as §1
Twelve hours after the last injection, animals were anesthetized by i.p. injections of pentobarbital at (100 mg/kg) and transcardially perfused with 0.1 M phosphate buffer for 2 min, then fixed for 10 min with 4% paraformaldehyde. Post-fixation of the brain was done in 4% paraformaldehyde at 4° C. for 48 h. Their brains were prepared for histological analysis, as described (Xu et al. 2014). For the immunoblot analysis in P301S mice and wild type mice were sacrificed by cervical dislocation, their brains were frozen on dry ice and stored at −80° C. for Western blot analysis.
Frontal cortex tissue was dissected from the fresh-frozen sample on dry ice and suspended in 750 μl of T-PER Tissue Protein Extraction Reagent (Thermo Fisher Scientific) and 1× cOmplete Protease Inhibitor Cocktail Tablets (Hoffmann-La Roche) and 1× PhosSTOP Phosphatase Inhibitor Cocktail Tablets (Hoffmann-La Roche). The tissue piece was initially ground with a pestle inside a microcentrifuge tube on ice and then homogenized by sonification with Branson Sonifier 450 Analog (Branson, now Thermo Fisher Scientific) with 10×500 ms bursts at intensity level 3 on ice. […] Protein concentrations were determined using the BCA kit (Thermo Fisher Scientific) by heating the samples at 60° C. for 30 minutes and measuring the absorption on the NanoDrop 2000c spectrophotometer (Thermo Fisher Scientific).
20 μg of protein (200 μg for pPERK blots) were adjusted to equal concentrations between samples by dilution with M-PER and subsequently heated at 95° C. for 5 minutes with Roti®-Load 1 (Carl Roth). […] Chemiluminescence was detected with the Gel Doc™ XR System (BioRad) and analyzed with the Image Lab™ software (BioRad), followed by graphical and statistical analysis with Prism 6 (GraphPad Software).

## CCN(CC)CCC(=O)N1N=C(c2c(-c3ccccc3)c3cc(Br)ccc3[nH]c2=O)CC1c1ccc(Br)cc1 (stereo not shown) [CCT020312, 6-bromo-3-[5-(4-bromo-phenyl)-1-(3-diethylamino-propionyl)-4,5-dihydro-1H-pyrazol-3-yl]-4-phenyl-1H-quinolin-2-one]
LUHMES neurons
  number of viable cells: toxicity of annonacin and 4R-tau overexpression: mitigated these effects
[1]
  Rotarod performance (latency to fall): significantly improved; also recorded: increased performance
[2]; aged wild type and P301S tau mice, 2 mg/kg once daily for 6 weeks, until 23 weeks of age
  death or obvious signs of sickness during treatment: no CCT020312-treated wild type (n=9) and P301S tau mouse (n=12) died during the treatment period or showed any obvious signs of sickness
[2]; young wild type and P301S tau mice, 2 mg/kg for 6 weeks
  death or obvious signs of sickness during treatment: No CCT020312-treated mouse of the wild type group (N=8) and of the P301S tau group (N=8) died during the treatment period or showed any obvious signs of sickness
Pathological tau species
  AT180-immunoreactivity (paired helical filament tau), immunoblot: decreased
  CP13-immunoreactivity (S202-phosphorylated tau), immunoblot: decreased
  MC1-immunoreactivity (conformationally changed tau), immunoblot: decreased
